According to patent US20100261710A1, “HDAC Inhibitors” (ARQULE, INC., priority 2007, published 2010):
pIC50: −log10 of the molar value.

Assays:
HDAC1 = target: T1, HDAC1 (Homo sapiens, UniProt Q13547); assay: HDAC-1 immunocapture fluorescent biochemical assay (HeLa lysate); conditions: HDAC1 immunocaptured from HeLa extract
T1 construct: cell extract containing HDAC (HeLa in these experiments); endogenous in cells; host or cells: HeLa cell extract
Description: The HDAC-1 assay represents a novel immunocapture assay procedure. […] The HDAC1 is captured on a protein A coated plate using HDAC1 specific antibody, and is then allowed to react with the substrate.
This assay in performed in four general steps. In the first step (FIG. 1A), cell extract containing HDAC (HeLa in these experiments) is incubated with (cell signaling) rabbit polyclonal HDAC1 antibody (rabbit IgG antibody is used for background control) to allow binding of the enzyme to the antibody. In the second step, the complexed mixture is added to the protein A covered plate which captures the antibody. In the third step, after washing away unbound proteins, substrate and inhibitor are added and deacetylation is allowed to occur. […] The plate is then read on either Victor or Perkin Elmer Envision system using Umbilliferone filter set.
• A. HeLa extract complexed with HDAC1 antibody working solution (in DPBS):
Compound working solution (in HDAC buffer):
Compounds diluted in assay buffer at 2× Screening concentration. • D. Activator solution:
Trypsin (10 mg/mL) diluted 1:1600 in assay buffer containing 4 μM TSA.
Complexing of extract with antibody was carried out at room temperature for 60 min with rocking. Binding of complexes onto protein A plate was carried out at room temperature for 60 min in 50 μL. Reaction was carried out in […], in the protein A plate for 60 minutes at 37° C. 40 μL of the reaction was moved into white ½ area plate for activation and reading.
• 1. Set PIERCE Protein A plate to block with 150 μof 5% BSA in TB ST for 60 min at room temperature. • 2. […] Dilute complexes further ([…]) by addition of 3.5 mL of PBS (final total volume of 5 mL). • 4. Wash blocked protein A plate prior to complex addition with TBST. • 5. Add 50 μl of diluted complexes to Protein A plate and incubate for 60 min at room temperature. • 6. Wash plate with TB ST. • 7. Add 25 μl of diluted compounds (in HDAC buffer) to each well and incubate for 10 min at room temperature. • 8. […] Move 40 μl of reaction to a white plate and add 20 μl of activator/developer solution, mix thoroughly. • 10. Read plate.

[1] = tested on: HDACs (nuclear HeLa extract); assay: pan-HDAC fluorescent biochemical assay with nuclear HeLa extract; conditions: HDAC peptide substrate, 60 min at 37° C.
Description: Substrate was synthesized in house. Stocks were prepared in DMSO (10 mM).
Compound working solution: Compounds dissolved in assay buffer at 4× Screening concentration. Activator solution: Trypsin (10 mg/mL) diluted 1:1600 in Assay Buffer containing 4 μM TSA.
Total reaction Volume: 40 μL
Reaction was allowed to run for 60 minutes at 37° C.
2. Combine in a white ½ area well plate: 10 μl of 4× compound (or buffer), 15 μl of substrate and 15 μl of HeLa extract. Mix well
3. Incubate at 37° C. for 60 min.
4. Prepare Activator solution. Dilute Trypsin 1:1600 in Assay Buffer+4μM TSA. 20 μl is needed per assay point.
5. Add 20 μl of prepared activator solution and mix thoroughly.
The hydroxamic-acid based compounds of the present invention were tested in the biochemical assay for their pan-HDAC inhibitory activity.

HCT-116 cells = assay: MTS cell viability assay, HCT-116; type: cell-based; conditions: Homo sapiens, HCT-116, 72 h, read-out: HCT-116, IG50, MTS (uM)
Description: (§1) The MTS cell viability assay was used to determine the potency of proliferation inhibitor with. MTS measures mitochondrial dehydrogenase activity and serves as surrogate readout for the number of viable cells.
(§2) For MTS assay, cells were plated in 96-well plates at 2000 cells per well and incubated in the presence of compounds for 72 hr. MTS was added to each well as instructed by manufacture (Promega) and plates were incubated for 4 h at 37° C. The absorbance of each well was measured at 490 nm using a microplate reader.

HDAC2 = target: T2, HDAC2 (Homo sapiens, UniProt Q92769); assay: HDAC isoform assay, HDAC2; type: biochemical; conditions: substrate KI-177; read-out: HDAC2, IC50, ELISA (KI-177)
T2 construct: purchased BioMol

HDAC3 = target: T3, HDAC3 (Homo sapiens, UniProt O15379); assay: HDAC isoform assay, HDAC3; type: biochemical; conditions: substrate KI-177; read-out: HDAC3, IC50, ELISA (KI-177)
T3 construct: purchased BioMol
Description: The assay measures the ability of a small molecule to inhibit deacetylation of the substrate. Activator reagent recognizes the substrate only if the lysine has been deacetylated.
This homogeneous assay in performed in the same well without washing steps. The HDAC source, nuclear HeLa extract, is incubated with substrate in the presence of an inhibitor compound. At the end of the reaction time, activator solution, containing Trypsin and TSA, is added to stop the deacetylation reaction, and cleave the amino-coumarin from the deacetylated substrate. The plate is then read on either a Perkin Elmer Victor or Envision system using Umbilliferone filter set. […] The signal is directly proportional to the activity of HDACs and compound inhibition of HDAC is monitored by a decrease in signal.

HH cells = assay: MTS cell viability assay, HH; type: cell-based; conditions: Homo sapiens, 72 hr, read-out: HH, IG50, MTS
Description: The MTS cell viability assay was used to determine the potency of proliferation inhibitor with. MTS measures mitochondrial dehydrogenase activity and serves as surrogate readout for the number of viable cells. The protocol described below is based upon the “CellTiter 96 Aqueous Non-Radioactive Cell Proliferation Assay” sold by Promega (Technical Bulletin No. 169).
as §2

MJ cells = assay: MTS cell viability assay, MJ; type: cell-based; conditions: 72 hr, read-out: MJ, IG50, MTS
Description: as §1, §2

HDAC5 = HDAC5 (Homo sapiens, UniProt Q9UQL6); assay: HDAC isoform assay, HDAC5
HDAC6 = target: T4, HDAC6 (Homo sapiens, UniProt Q9UBN7); assay: HDAC isoform assay, HDAC6
T4 sequence (Q9UBN7 1-1215): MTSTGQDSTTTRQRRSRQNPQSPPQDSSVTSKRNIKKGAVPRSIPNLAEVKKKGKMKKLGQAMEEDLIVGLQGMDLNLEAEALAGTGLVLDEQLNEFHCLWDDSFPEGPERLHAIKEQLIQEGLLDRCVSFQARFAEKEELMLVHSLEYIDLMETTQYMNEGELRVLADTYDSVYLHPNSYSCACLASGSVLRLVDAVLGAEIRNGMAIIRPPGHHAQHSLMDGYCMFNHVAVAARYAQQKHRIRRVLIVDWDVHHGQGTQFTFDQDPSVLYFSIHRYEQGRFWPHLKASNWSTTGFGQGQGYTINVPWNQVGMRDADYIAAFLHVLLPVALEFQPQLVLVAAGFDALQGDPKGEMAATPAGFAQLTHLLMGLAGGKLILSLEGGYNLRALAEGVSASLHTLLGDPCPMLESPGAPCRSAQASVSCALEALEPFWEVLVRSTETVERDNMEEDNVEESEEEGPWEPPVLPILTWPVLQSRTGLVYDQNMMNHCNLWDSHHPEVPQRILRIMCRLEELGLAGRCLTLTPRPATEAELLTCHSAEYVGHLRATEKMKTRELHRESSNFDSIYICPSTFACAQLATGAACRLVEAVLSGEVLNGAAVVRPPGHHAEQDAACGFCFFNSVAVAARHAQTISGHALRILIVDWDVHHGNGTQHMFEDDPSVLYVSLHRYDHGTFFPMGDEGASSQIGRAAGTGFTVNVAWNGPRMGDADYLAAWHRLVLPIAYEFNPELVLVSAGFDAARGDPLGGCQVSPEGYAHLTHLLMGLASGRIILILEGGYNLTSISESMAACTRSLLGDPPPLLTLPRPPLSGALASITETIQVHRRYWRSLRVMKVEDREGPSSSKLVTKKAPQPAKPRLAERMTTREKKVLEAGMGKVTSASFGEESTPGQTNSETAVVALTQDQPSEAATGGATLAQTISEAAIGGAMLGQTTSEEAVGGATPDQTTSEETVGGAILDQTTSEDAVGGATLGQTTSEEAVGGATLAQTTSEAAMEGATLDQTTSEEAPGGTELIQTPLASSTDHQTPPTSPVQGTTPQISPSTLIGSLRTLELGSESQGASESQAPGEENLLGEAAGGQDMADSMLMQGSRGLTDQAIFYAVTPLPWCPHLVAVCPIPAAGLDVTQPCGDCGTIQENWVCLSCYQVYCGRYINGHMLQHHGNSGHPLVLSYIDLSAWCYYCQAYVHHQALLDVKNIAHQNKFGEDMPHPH

HDAC4 = target: T5, HDAC4 (Homo sapiens, UniProt P56524); assay: HDAC isoform assay, HDAC4; type: biochemical; conditions: substrate KI-177; read-out: HDAC4, IC50, ELISA (KI-177)
T5 construct: purchased BioMol

HDAC8 = target: T6, HDAC8 (Homo sapiens, UniProt Q9BY41); assay: HDAC isoform assay, HDAC8
T6 sequence (Q9BY41 1-377): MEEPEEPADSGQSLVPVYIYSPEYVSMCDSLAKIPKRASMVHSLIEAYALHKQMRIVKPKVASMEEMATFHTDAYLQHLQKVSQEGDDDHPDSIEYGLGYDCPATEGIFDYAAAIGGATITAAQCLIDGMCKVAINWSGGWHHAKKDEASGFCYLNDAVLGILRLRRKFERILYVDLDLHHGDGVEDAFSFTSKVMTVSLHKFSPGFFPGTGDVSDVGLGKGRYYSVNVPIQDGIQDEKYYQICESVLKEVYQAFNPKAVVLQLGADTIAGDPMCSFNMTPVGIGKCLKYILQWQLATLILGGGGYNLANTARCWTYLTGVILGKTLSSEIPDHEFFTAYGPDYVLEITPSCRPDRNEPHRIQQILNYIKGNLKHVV

T3 sequence (O15379 whole entry, canonical isoform): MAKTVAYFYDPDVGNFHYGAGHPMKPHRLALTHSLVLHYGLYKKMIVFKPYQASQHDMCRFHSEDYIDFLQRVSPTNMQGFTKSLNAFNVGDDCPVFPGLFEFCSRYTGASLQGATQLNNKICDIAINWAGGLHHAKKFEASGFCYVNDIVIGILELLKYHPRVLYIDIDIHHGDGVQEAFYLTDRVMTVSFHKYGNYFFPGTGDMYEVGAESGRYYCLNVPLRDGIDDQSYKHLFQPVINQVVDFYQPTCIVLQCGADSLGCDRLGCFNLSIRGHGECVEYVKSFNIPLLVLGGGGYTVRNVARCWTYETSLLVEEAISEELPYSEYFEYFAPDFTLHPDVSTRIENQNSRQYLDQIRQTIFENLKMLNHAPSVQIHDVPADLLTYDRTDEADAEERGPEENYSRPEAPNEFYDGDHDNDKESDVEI
T3 sequence (O75376 395-489 partner limits assumed): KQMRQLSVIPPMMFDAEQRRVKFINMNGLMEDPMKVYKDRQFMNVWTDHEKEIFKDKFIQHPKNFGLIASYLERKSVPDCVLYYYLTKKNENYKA
T2 sequence (Q92769 whole entry, canonical isoform): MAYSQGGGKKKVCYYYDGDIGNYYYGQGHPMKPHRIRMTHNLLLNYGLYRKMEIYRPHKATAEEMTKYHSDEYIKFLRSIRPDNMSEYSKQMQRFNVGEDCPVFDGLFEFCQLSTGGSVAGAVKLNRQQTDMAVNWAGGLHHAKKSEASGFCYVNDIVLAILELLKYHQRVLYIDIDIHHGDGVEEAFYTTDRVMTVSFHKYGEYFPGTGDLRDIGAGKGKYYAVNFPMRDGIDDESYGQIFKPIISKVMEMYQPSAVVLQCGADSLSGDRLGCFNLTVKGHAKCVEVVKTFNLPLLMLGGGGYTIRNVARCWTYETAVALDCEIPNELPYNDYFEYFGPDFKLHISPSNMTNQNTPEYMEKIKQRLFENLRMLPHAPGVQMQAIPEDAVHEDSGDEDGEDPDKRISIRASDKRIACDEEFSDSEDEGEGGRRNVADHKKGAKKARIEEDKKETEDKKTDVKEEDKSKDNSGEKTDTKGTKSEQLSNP
T1 sequence (Q13547 whole entry): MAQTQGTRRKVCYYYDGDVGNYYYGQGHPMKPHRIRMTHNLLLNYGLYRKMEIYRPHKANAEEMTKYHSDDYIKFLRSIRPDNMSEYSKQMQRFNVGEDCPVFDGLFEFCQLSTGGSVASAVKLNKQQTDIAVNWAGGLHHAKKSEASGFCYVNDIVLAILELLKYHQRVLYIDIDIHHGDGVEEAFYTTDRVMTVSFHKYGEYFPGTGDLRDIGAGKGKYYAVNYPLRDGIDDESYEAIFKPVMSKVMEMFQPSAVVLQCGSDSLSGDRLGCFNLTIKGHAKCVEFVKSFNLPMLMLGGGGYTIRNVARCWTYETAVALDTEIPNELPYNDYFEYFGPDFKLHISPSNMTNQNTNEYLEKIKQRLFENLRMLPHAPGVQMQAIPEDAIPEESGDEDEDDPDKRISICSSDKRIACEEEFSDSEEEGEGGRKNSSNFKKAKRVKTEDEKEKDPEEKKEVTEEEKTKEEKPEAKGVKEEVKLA
T5 sequence (P56524 whole entry, canonical isoform): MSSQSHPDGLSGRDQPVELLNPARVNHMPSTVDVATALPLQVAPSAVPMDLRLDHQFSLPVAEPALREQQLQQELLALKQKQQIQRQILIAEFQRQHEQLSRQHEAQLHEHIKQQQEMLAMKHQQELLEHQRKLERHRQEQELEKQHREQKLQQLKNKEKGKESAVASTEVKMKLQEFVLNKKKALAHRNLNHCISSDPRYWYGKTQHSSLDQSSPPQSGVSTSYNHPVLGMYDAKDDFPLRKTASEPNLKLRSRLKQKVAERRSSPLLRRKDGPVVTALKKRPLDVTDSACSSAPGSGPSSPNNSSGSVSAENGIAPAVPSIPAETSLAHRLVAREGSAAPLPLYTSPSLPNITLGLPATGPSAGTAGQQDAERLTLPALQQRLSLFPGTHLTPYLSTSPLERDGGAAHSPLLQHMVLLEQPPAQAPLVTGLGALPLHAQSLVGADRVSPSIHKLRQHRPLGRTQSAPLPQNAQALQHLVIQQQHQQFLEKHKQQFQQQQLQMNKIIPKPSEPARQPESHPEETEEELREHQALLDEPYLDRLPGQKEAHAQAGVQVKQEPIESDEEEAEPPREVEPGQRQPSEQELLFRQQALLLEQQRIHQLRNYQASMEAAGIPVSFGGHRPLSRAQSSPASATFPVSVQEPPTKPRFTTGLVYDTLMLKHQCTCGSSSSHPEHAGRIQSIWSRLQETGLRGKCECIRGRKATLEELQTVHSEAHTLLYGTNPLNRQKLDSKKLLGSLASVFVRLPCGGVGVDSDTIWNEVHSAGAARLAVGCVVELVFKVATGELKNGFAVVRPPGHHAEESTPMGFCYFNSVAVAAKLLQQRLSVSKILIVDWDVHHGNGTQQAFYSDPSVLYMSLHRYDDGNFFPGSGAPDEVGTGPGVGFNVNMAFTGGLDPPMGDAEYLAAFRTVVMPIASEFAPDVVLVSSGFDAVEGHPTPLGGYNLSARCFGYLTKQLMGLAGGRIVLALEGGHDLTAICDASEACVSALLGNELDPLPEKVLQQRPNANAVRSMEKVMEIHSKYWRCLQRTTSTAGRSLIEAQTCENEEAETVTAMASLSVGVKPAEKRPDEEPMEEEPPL
Sequence of HDAC5 (Q9UQL6 whole entry, canonical isoform): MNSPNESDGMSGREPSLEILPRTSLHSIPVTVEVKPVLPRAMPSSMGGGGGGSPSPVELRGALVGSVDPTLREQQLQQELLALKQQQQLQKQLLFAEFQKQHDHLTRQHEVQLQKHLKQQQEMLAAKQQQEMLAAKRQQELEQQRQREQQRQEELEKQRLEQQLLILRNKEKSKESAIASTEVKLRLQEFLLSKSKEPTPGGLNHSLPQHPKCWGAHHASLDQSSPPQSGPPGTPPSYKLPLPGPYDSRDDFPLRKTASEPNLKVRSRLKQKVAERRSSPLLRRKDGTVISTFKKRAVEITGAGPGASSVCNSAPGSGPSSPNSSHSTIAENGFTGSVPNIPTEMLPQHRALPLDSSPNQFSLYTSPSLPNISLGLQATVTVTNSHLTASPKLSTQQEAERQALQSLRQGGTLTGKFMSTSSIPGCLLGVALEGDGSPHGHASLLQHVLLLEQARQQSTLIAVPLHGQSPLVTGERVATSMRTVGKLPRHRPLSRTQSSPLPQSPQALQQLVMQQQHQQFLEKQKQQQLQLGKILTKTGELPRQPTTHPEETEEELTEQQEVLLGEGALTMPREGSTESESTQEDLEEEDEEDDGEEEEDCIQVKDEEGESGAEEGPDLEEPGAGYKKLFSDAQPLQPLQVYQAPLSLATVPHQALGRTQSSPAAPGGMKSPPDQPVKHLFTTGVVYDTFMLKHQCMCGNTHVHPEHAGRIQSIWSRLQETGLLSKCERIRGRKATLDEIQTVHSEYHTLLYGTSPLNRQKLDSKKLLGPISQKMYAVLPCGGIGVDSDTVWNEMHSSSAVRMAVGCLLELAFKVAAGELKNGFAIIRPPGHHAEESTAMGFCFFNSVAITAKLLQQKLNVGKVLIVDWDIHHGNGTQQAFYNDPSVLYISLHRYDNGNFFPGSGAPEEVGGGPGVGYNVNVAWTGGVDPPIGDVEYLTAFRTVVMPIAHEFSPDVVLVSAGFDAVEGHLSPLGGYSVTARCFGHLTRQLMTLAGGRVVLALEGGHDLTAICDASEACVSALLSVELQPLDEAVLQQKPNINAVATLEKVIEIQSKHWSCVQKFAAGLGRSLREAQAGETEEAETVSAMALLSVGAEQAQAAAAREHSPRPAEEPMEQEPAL

SMILES: O=C(CCCCNC(=O)c1cn2c3c(cccc13)CCC2)NO [compound 5, N-[5-(hydroxyamino)-5-oxopentyl]-5,6-dihydro-4H-pyrrolo[3,2,1-ij]quinoline-1-carboxamide]
- pIC50 (HDAC1): 6.23
- pIC50 [1]: 6.09
- IC50 (HCT-116 cells): 5.81 µM
- melting point: 179 to 181 °C

SMILES: Nc1cc(Cl)c(Cl)cc1NC(=O)CCCCCCNC(=O)c1cn2c3c(cccc13)CCC2 [compound 21, N-{7-[(2-amino-4,5-dichlorophenyl)amino]-7-oxoheptyl}-5,6-dihydro-4H-pyrrolo[3,2,1-ij]quinoline-1-carboxamide]
- pIC50 [1]: 4.81
- melting point: 124 to 125 °C

SMILES: O=C(NO)c1ccc(CNC(=O)c2cn3c4c(cccc24)CCC3)cc1 [compound 6, N-{4-[(hydroxyamino)carbonyl]benzyl}-5,6-dihydro-4H-pyrrolo[3,2,1-ij]quinoline-1-carboxamide]
- pIC50 (HDAC2): 5.52
- pIC50 (HDAC3): 7.58
- pIC50 [1]: 7.15
- IC50 (HCT-116 cells): 0.457 µM
- pIC50 (HH cells): 7.04
- pIC50 (MJ cells): 6.24
- melting point: 191 to 192 °C
- pIC50 (HDAC5): 7.43
- pIC50 (HDAC6): 8.11

SMILES: Nc1ccccc1NC(=O)CCCCCCNC(=O)c1cn2c3c(cccc13)CCC2 [compound 20, N-{7-[(2-aminophenyl)amino]-7-oxoheptyl}-5,6-dihydro-4H-pyrrolo[3,2,1-ij]quinoline-1-carboxamide]
- pIC50 [1]: 5.36
- melting point: 144 to 145 °C

SMILES: O=C(CCCCCCCNC(=O)c1cn2c3c(cccc13)CCC2)NO
- melting point: 174 to 176 °C

SMILES: O=C(Cc1ccc(NC(=O)c2cn3c4c(cccc24)CCC3)cc1)NO [compound 16, N-{4-[2-(hydroxyamino)-2-oxoethyl]phenyl}-5,6-dihydro-4H-pyrrolo[3,2,1-ij]quinoline-1-carboxamide]
- pIC50 [1]: 5.70
- melting point: 199 to 202 °C

SMILES: CC(=O)CCC1CCN(C(=O)c2cn3c4c(cccc24)CCC3)CC1 [compound 19, 4-[1-(5,6-dihydro-4H-pyrrolo[3,2,1-ij]quinolin-1-ylcarbonyl)piperidin-4-yl]butan-2-one]
- pIC50 [1]: 4.70

SMILES: O=C(CCCCCCN(Cc1ccccc1)C(=O)c1cn2c3c(cccc13)CCC2)NO [compound 14, N-benzyl-N-[7-(hydroxyamino)-7-oxoheptyl]-5,6-dihydro-4H-pyrrolo[3,2,1-ij]quinoline-1-carboxamide]
- pIC50 [1]: 6.11
- IC50 (HCT-116 cells): 3.8 µM
- melting point: 71 to 73 °C

SMILES: CC(C)(C)OC(=O)N1CCn2cc(C(=O)NCc3ccc(C(=O)NO)cc3)c3cccc(c32)C1 [compound 15, tert-butyl 7-{[4-(hydroxycarbamoyl)benzyl]carbamoyl}-3,4-dihydro[1,4]diazepino[6,7,1-hi]indole-2(1H)-carboxylate]
- pIC50 (HDAC1): 6.31
- pIC50 (HDAC2): 5.00
- pIC50 (HDAC3): 6.29
- pIC50 (HDAC4): 6.10
- pIC50 [1]: 6.30
- pIC50 (HDAC6): 6.69
- pIC50 (HDAC8): 5.46

SMILES: COc1cccc(-c2cn3cc(C(=O)NCCCCCCC(=O)NO)sc3n2)c1 [compound 22, N-[7-(hydroxyamino)-7-oxoheptyl]-6-(3-methoxyphenyl)imidazo[2,1-b][1,3]thiazole-2-carboxamide]
- pIC50 [1]: 6.31
- melting point: 209 to 211 °C

SMILES: O=C(CCCCCCNC(=O)c1cc2cccc3c2n1CCC3)NO [compound 23, N-[7-(hydroxyamino)-7-oxoheptyl]-5,6-dihydro-4H-pyrrolo[3,2,1-ij]quinoline-2-carboxamide]
- pIC50 (HDAC1): 7.77
- pIC50 (HDAC2): 5.52
- pIC50 (HDAC3): 7.43
- pIC50 (HDAC4): 7.55
- melting point: 160 to 161 °C
- pIC50 (HDAC6): 7.37
